The values below come from paper PMC11519904, “Comprehensive Cell Biological Investigation of Cytochalasin B Derivatives with Distinct Activities on the Actin Network” (Journal of Natural Products, 2024).

Experiment [1] deals with T1, actin (G-actin purified from rabbit skeletal muscle) (Oryctolagus cuniculus, UniProt P68135).
T1 construct: 1.5 kg of fresh rabbit skeletal muscle was minced with a meat grinder; from tissue; host or cells: rabbit skeletal muscle (acetone powder)
The experiment is described as follows: Pyrene actin polymerization assay. Format: biochemical. The note with it: 2 μM compound, 2 μM actin (5% pyrene-actin), 550 nM actin seeds, after 30 min; control = 100%. The text has this: To rule out that the reduced in cellulo efficacies of 3–5 could instead be explained by an altered membrane permeability of modified compounds or their differential effects on other intracellular factors, pyrene actin polymerization assays[23] were used to analyze potential effects on actin assembly in vitro under defined conditions. Globular actin (G-actin) was purified from rabbit skeletal muscle[24] and fluorescently labeled with pyrene (see description in the Supporting Information). G-actin (2 μM) supplemented with 5% pyrene-labeled actin was added to actin seeds and the respective compound (2 μM) in polymerization buffer to initiate the reaction. Actin polymerization was then assessed by reading out the increasing pyrene fluorescence signal over time (Figure 3).
Acetone powder and G-actin were prepared as described previously.[24] Briefly, 1.5 kg of fresh rabbit skeletal muscle was minced with a meat grinder. Subsequently, the meat was stirred for 15 min in 2.5 L of high-salt buffer (0.5 M KCl, 0.1 M K2HPO4, 2 mM benzamidine, pH 6.4) and then pelleted at 4000g for 10 min. The supernatant was discarded, and the pellet was extracted once more with high-salt buffer and then washed twice with ice-cold ddH2O adjusting the slurry with 1 M Na2CO3 to pH 8.3 until a slight swelling of the pellet became visible. The pellet was then resuspended in ice-cold acetone, stirred for 15 min, and then centrifuged for 10 min at 4000g. The supernatant was discarded, and the pellet was washed once more with acetone before the pellet was broken up and dried in small pieces on aluminum foil under a fume hood overnight. The dried acetone powder was stored at −80 °C for further use.
For purification of G-actin, 5 g of the acetone powder was extracted five times with 50 mL of G-buffer containing 2 mM Tris-HCl, pH 8.0, 0.2 mM CaCl2, 0.5 mM DTT, 0.2 mM Na2ATP, and 0.1 mg/mL NaN3. After each step, the solution was filtered through a fine gauze, yielding a total volume of 250 mL. Subsequently, the solution was centrifuged for 30 min at 20,000g at 4 °C. Actin in the supernatant was then polymerized by addition of 25 × polymerization buffer (250 mM Tris-HCl pH 8.0, 1250 mM KCl, 25 mM Na2ATP, 50 mM MgCl2 × 6 H2O) overnight. Subsequently, KCl was added to a final concentration of 750 mM, followed by centrifugation of the solution at 150,000g at 4 °C for 3 h. The F-actin pellet was then homogenized with 25 mL of G-actin buffer using a potter and then dialyzed against G-buffer. After a final centrifugation step at 150,000g at 4 °C for 3 h, G-actin was purified by size exclusion chromatography using a HiLoad 26/75 Superdex 200 column. Actin concentrations were determined by measuring the absorbance at 290 nm and using an extinction coefficient of 26,600 M^–1 cm^–1.
For pyrene labeling, 10–20 mL of G-actin solution were dialyzed against labeling buffer following the procedure described by Doolittle et al.[38] […]
Pyrene assays were conducted to assess the inhibitory properties of cytochalasins on actin polymerization under defined conditions in vitro using G-actin and actin seeds. The degree of labeling was determined; EC290 nm actin: 26600 1/M × cm; EC342 nm pyrene: 31091 1/M × cm. […]

Experiment [2] deals with glucose carrier in human erythrocytes. Conditions: cited from earlier work.
In experiment [3] the test system is Schizosaccharomyces pombe (DSM 70572). Kind of experiment: Serial dilution assay (MIC), S. pombe. In kind it is cell-based. Conditions: DSM70572, growth inhibition at 24 h, read-out: MIC against S. pombe. How it is done:
Serial dilutions of compounds were prepared as triplicates in sterile U-bottom-shaped 96-well plates (Corning, USA). Mueller-Hinton broth (MHB) medium was used for bacteria, and YMG medium was used for filamentous fungi and yeasts. The selected organisms represent a broad spectrum of pathogens of clinical interest, as well as sensitive indicator strains (Gram-positive bacteria: Bacillus subtilis (DSM 10), Staphylococcus aureus (DSM 346), Mycobacterium smegmatis (ATCC 7000084); Gram-negative bacteria: Acinetobacter baumannii (DSM 30008), Chromobacterium violaceum (DSM 30191), Escherichia coli (DSM 1116), Pseudomonas aeruginosa (PA 14); fungi and yeast: Schizosaccharomyces pombe (DSM 70572), Pichia anomala (DSM 6766), Mucor hiemalis (DSM 2656), Candida albicans (DSM 1665), Rhodotorula glutinis (DSM 10134)).
The compounds were dissolved in MeOH (1 mg/mL), added to the bacterial suspension, and diluted to the final concentrations. The plate was incubated at 37 °C under static conditions. Growth inhibition was assessed at 24 h. MeOH was used as negative control. […]

Experiment [4] relates to KB3.1 (human cervix carcinoma). The experiment is described as follows: Cytotoxicity assay (MTT), KB3.1. The note with it: 5 days of incubation, MTT, read-out: IC50 KB3.1. In kind it is cell-based. The method, then: The cytotoxicity assay was implemented in 96-well flat-bottom microtiter plates following a reported procedure.[21],[22],[33] The mammalian cell lines L929 (mouse fibroblast) and KB3.1 (human cervix carcinoma) were cultivated at 37 °C and 10% CO2 in Dulbecco’s modified minimum essential medium (DMEM, Life Technologies, Carlsbad, CA, USA) supplemented with 10% fetal bovine serum (FBS, Life Technologies). The microtiter plate was filled with 120 μL of suspended cells (50,000/mL), and 60 μL of a serial dilution of the test compound was added. After 5 days of incubation, growth inhibition (IC50) was determined by a colorimetric tetrazolium dye MTT assay.[34] The compounds were dissolved in MeOH (1 mg/mL), MeOH was used as negative control, and epothilone[35] (1 mg/mL) was used as positive control.

Each structure is given as a SMILES string. ≈ marks a conversion by molar mass, not a printed value. Where “and” joins values, the source holds several entries; their conditions need not be identical. Equal values may be shown once. Read-outs that look alike come from different tables or passages of the source.

Consider `C=C1[C@@H](C)[C@H]2[C@H](Cc3ccccc3)NC(=O)[C@]23OC(=O)/C=C/[C@H](O)CCC[C@@H](C)C/C=C/[C@H]3[C@@H]1OC(C)=O` [Compound 3, 7-O-acetyl cytochalasin B], for which the “relative actin polymerization rate” value in experiment [1] is on record as 107%. The “binding to site I of the glucose carrier” value in experiment [2] (human erythrocyte membranes ref 30) was “able to bind site I”. Further, the “inhibition of glucose transport” value in experiment [2] (human erythrocytes ref 29, 30) was “inhibits glucose transport”.
Turning to `C=C1[C@@H](C)[C@H]2[C@H](Cc3ccccc3)NC(=O)[C@]23OC(=O)/C=C/[C@H](OC(C)=O)CCC[C@@H](C)C/C=C/[C@H]3[C@@H]1O` [Compound 6, 20-O-acetyl cytochalasin B], the “relative actin polymerization rate” value in experiment [1] turned out to be 58%. The minimal inhibitory concentration (MIC) (commonly the lowest concentration found to suppress growth) in experiment [3] was 33.3 µg/mL (≈ 63.8 µM).
As for `C=C1[C@@H](C)[C@H]2[C@H](Cc3ccccc3)N(C(C)=O)C(=O)[C@]23OC(=O)/C=C/[C@H](O)CCC[C@@H](C)C/C=C/[C@H]3[C@@H]1O` [Compound 5, N-acetyl cytochalasin B], the “relative actin polymerization rate” value in experiment [1] was 86% and 84–86%. For the same compound, the half-maximal inhibitory concentration (IC50) (in general, the midpoint of a concentration-inhibition curve) is 7.9 µM in experiment [4] and 4.8 to 9.4 µM in experiment [4] (Homo sapiens, KB 3-1, 120 h).
